In PMC6934184, “Selective DNA-PKcs inhibition extends the therapeutic index of localized radiotherapy and chemotherapy” (The Journal of Clinical Investigation, 2019):

Target: T1, TNK2 (ACK) (Homo sapiens, UniProt Q07912)
T1 construct: purchased Thermo Fisher Scientific (Life Technologies) SelectScreen
Test: SelectScreen LanthaScreen
Format: binding
Details: read-out: % displacement
How it was run: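 NU5455 was profiled across the SelectScreen Broad panel of kinase activity and binding assays. Z'LYTE reactions such as CSF1R ran at apparent Km ATP, while the Adapta CAMK1 assay used ATP listed as 10. Values are given as percent.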

T1 sequence (Q07912 whole entry): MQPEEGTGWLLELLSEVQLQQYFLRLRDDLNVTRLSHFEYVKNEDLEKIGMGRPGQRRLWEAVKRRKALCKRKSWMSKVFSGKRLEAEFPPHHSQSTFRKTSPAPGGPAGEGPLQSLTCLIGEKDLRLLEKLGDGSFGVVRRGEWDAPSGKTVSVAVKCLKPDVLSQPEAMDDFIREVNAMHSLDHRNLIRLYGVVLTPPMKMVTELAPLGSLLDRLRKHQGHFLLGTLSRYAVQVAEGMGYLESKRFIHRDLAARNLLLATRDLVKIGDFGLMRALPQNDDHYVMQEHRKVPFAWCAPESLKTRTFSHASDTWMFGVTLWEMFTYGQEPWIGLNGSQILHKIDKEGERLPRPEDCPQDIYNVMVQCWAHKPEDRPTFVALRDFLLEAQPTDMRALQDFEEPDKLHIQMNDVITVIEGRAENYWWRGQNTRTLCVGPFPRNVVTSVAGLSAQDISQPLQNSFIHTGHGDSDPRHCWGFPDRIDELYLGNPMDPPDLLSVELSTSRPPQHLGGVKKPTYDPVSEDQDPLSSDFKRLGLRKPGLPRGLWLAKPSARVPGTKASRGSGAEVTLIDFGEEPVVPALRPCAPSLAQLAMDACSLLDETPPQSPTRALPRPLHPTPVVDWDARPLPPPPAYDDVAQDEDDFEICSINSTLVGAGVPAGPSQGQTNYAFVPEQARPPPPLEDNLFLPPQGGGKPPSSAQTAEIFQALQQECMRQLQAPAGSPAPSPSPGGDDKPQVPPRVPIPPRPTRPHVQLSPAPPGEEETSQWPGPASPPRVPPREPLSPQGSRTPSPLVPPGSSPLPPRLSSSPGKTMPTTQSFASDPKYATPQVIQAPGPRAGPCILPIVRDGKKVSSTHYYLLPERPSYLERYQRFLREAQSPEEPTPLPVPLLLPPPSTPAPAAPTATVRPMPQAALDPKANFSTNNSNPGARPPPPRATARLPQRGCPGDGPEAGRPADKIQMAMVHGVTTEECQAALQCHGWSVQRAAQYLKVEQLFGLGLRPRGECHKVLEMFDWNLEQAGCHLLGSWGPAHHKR

CN(C(=O)CN1CCOCC1)c1ccc2sc3c(-c4cccc5c(=O)cc(N6CC7CCC(C6)O7)oc45)cccc3c2c1 [NU5455]
inhibition at 1 µM: 1.8%
